Results: patent US20160097044A1, “Antimicrobial Enzyme Fusions Reduce Resistance and Kill Intracellular Staphylococcus aureus” (The United States of America, as Represented by the …, priority 2014, published 2016)

How the values were obtained:
S. aureus Newbould 305 = assay: Murine model of mastitis, bacterial load; type: in vivo, C57BL6/SJL mice; conditions: single 1.25 nmoles intramammary infusion 30 minutes post infection, 18 h
Description: FIG. 6a depicts the specific activity of peptidoglycan hydrolase fusion constructs in vitro in a turbidity reduction assay with S. aureus Newbould 305 resuspended in lysis buffer to an OD600nm of 1.0 and treated with 1 μM final concentrations of each peptidoglycan hydrolase. The maximum specific activity for three experiments are represented as an average with SEM error bars. FIG. 6b depicts the bacterial burden in mice with mastitis treated with recombinant peptidoglycan hydrolases. Colony Forming Units (CFUs) from infected murine mammary glands following a single treatment with 50 μl of 25 μM peptidoglycan hydrolase (1.25 nmol). Each data point represents the average of duplicate bacterial platings. The horizontal bars represent the average CFU/mg for each group. FIG. 6c illustrates the TNFα response in mice with mastitis that were treated with peptidoglycan hydrolases. Data represents a minimum of 7 measurements in duplicate. Log TNFα was used for statistical analysis. Single asterisks indicate a significant difference from buffer control (p<0.05); double asterisks indicate a significant difference from the parental enzyme (p<0.05).
To evaluate the efficacy of purified, individually administered peptidoglycan hydrolases in a murine model of bovine mastitis, female C57BL6/SJL mice were challenged by the intramammary route with 100 CFU S. aureus Newbould 305 in 50 μl buffer. A single 1.25 nmoles intramammary infusion of each desired peptidoglycan hydrolase (50 μl of a 25 μM solution) or 50 μl PBS was given 30 minutes post infection [with up to six glands treated per animal, each gland receiving a unique treatment] as described earlier (Schmelcher et al. 2012. Appl. Environ. Microbiol. 78:2297-2305; Kerr et al. 2001. Nat. Biotechnol. 19:66-70). Dams were euthanized 18 h post infusion, the mammary glands were aseptically dissected, and portions of the gland were used for determination of bacterial load and TNFα concentrations, as described previously (Schmelcher et al., supra).
Statistical analysis: The variables were analyzed as two-factor mixed models with Treatment as the factor and Mouse as random Blocks. This model […] within mouse correlations. Log(TNFα) was used. The variance grouping technique was used for log CFU and log TNFα to correct for variance heterogeneity. Means comparisons were done with Sidak adjusted p-values so that the experiment-wise error was 0.05. Log(TNFα) is back-transformed to the original units for graphing.

S. aureus SA113 biofilms = assay: Static biofilm reduction model; type: cell-based; conditions: 1 h treatment, compared to buffer treated biofilms
Description: S. aureus SA113 biofilms were treated for 1 h with 100 μl of each enzyme individually or as equimolar mixtures of LysK and lysostaphin (white bars) in 300 mM NaCl, 50 mM NaH2PO4, 30% glycerol. Constructs are named as in FIG. 1a. Results are reported as the percentage reduction in biofilm compared to buffer treated biofilms. Data presented represents 4 replicates. Values represent means±[…]. Asterisks indicate significant differences (single factor ANOVA with t-test post hoc analysis Sidák correction) as compared to LysK (K) at that concentration. Adjusted alpha p<0.026. Peptidoglycan hydrolase constructs: lysostaphin (L), LysK (K), triple fusion K-L, and triple fusion (L-K), as named in FIG. 1a.
In the static biofilm reduction model, biofilms were produced as previously described (Gross et al. 2001. Infect. Immun. 69:3423-3426) with the following modifications. S. aureus strains were grown overnight in 5 ml TSB supplemented with 0.25% D(+)-glucose without shaking at 37° C. The culture was diluted 1/200 in fresh culture medium, and 200 μl was added to each well of a 96 well microtiter plate and incubated without shaking for 24 h at 37° C. Biofilms in the wells were washed twice with 200 μl SLB, treated with […] peptidoglycan hydrolase (Lysostaphin, LysK and the triple fusion proteins K-L and L-K) in SLB at concentrations indicated (FIG. 4) for 1 h at room temperature, and washed twice with 100 μl SLB. Adherent bacteria were fixed with 200 μl 95% ethanol-5% glacial acetic acid for 20 min, washed once with water, and stained with 100 μl 0.4% crystal violet for 15 min at room temperature. Excess stain was removed with 3 water washes. Bound stain was resolubilized in 33% acetic acid, and 20 μl was transferred to a 96 well plate containing 180 μl water. The OD590nm was determined in a Spectra Max plate reader. Percent reduction represents the difference in absorbance between biofilms exposed to buffer only and experimental wells that were exposed to the peptidoglycan hydrolases.
Static biofilms were created with S. aureus strain SA113 in 96 well dishes and treated for one hour with 100 μl of the indicated concentrations of each enzyme individually or as an equimolar mixture of LysK and lysostaphin.

[1] = test system: live S. aureus strain Newman cells; assay: Turbidity reduction assay; type: cell-based; conditions: 30 minute assay, 150 mM NaCl in SLB, FIG. 3d
From the text: FIGS. 3a-3d depict peptidoglycan hydrolase purity and the S. aureus bactericidal assay. […] FIG. 3b is a zymogram analysis using whole S. aureus (Newman) cells embedded within the gel matrix. FIG. 3c is a plate lysis analysis of peptidoglycan hydrolase constructs using live S. aureus (Newman) cell lawns clarified with indicated picomoles of each purified peptidoglycan hydrolase. FIG. 3d is a turbidity reduction analysis showing the linear range of enzyme concentration. A twofold dilution series of each enzyme was used in a 30 minute turbidity reduction assay on live S. aureus strain Newman cells to determine the enzyme concentrations that are within the linear range for each enzyme. Reaction conditions were 150 mM NaCl in SLB. Black, dark grey, light grey, and white bars represent peptidoglycan hydrolase constructs lysostaphin (L), LysK (K), triple fusion K-L, and triple fusion L-K, respectively, as named in FIG. 1a. Values are reported as the maximum rate ΔOD600nm/min±SEM.
SDS-PAGE, zymogram, turbidity reduction and plate lysis assays were performed as described previously (Becker et al. 2009, supra) with minor modifications as follows. For SDS-PAGE and zymogram analysis, one μg of the purified peptidoglycan hydrolase proteins and Kaleidoscope protein standards (Invitrogen, Carlsbad, Calif.) were analyzed by 15% SDS-PAGE. […]

K-L: both LysK lytic domains fused to the N-terminus of lysostaphin; SEQ ID NO:5, protein SEQ ID NO:6
bacterial load / clearance of mammary glands (in words) (S. aureus Newbould 305): not able to clear the mammary gland bacterial infection more than buffer alone
static biofilm reduction (in words) (S. aureus SA113 biofilms): effectively reduced staphylococcal biofilms
turbidity reduction activity compared to parental enzymes [1]: as effective as the parental peptidoglycan hydrolases

L: 247 amino acid mature (secreted) lysostaphin, staphylolytic bacteriocin, C-terminal His6 tag; SEQ ID NO:1 [reference compound]
reduction of bacterial load in mammary glands compared to controls (S. aureus Newbould 305): approximately 4 logs
static biofilm reduction (in words) (S. aureus SA113 biofilms): effectively reduced staphylococcal biofilms

B1: K: 495 amino-acid staphylococcal phage K endolysin LysK, C-terminal His6 tag; SEQ ID NO:3 (protein)
chain: MAKTQAEINKRLDAYAKGTVDSPYRVKKATSYDPSFGVMEAGAIDADGYYHAQCQDLITDYVLWLTDNKVRTWGNAKDQIKQSYGTGFKIHENKPSTVPKKGWIAVFTSGSYEQWGHIGIVYDGGNTSTFTILEQNWNGYANKKPTKRVDNYYGLTHFIEIPVKAGTTVKKETAKKSASKTPAPKKKATLKVSKNHINYTMDKRGKKPEGMVIHNDAGRSSGQQYENSLANAGYARYANGIAHYYGSEGYVWEAIDAKNQIAWHTGDGTGANSGNFRFAGIEVCQSMSASDAQFLKNEQAVFQFTAEKFKEWGLTPNRKTVRLHMEFVPTACPHRSMVLHTGFNPVTQGRPSQAIMNKLKDYFIKQIKNYMDKGTSSSTVVKDGKTSSASTPATRPVTGSWKKNQYGTWYKPENATFVNGNQPIVTRIGSPFLNAPVGGNLPAGATIVYDEVCIQAGHIWIGYNAYNGNRVYCPVRTCQGVPPNQIPGVAWGVFKLEHHHHHH
modifications: C-terminal His6 tag; Phage K
static biofilm reduction (in words) (S. aureus SA113 biofilms): effectively reduced staphylococcal biofilms

B2: L-K: LysK lytic domains inserted between lysostaphin's M23 endopeptidase domain and SH3b cell wall binding domain; SEQ ID NO:7, protein SEQ ID NO:8 (protein)
chain: MAATHEHSAQWLNNYKKGYGYGPYPLGINGGMHYGVDFFMNIGTPVKAISSGKIVEAGWSNYGGGNQIGLIENDGVHRQWYMHLSKYNVKVGDYVKAGQIIGWSGSTGYSTAPHLHFQRMVNSFSNSTAQDPMPFLKSAGYGKAGGTVTPTPNTGLDAKTQAEINKRLDAYAKGTVDSPYRVKKATSYDPSFGVMEAGAIDADGYYHAQCQDLITDYVLWLTDNKVRTWGNAKDQIKQSYGTGFKIHENKPSTVPKKGWIAVFTSGSYEQWGHIGIVYDGGNTSTFTILEQNWNGYANKKPTKRVDNYYGLTHFIEIPVKAGTTVKKETAKKSASKTPAPKKKATLKVSKNHINYTMDKRGKKPEGMVIHNDAGRSSGQQYENSLANAGYARYANGIAHYYGSEGYVWEAIDAKNQIAWHTGDGTGANSGNFRFAGIEVCQSMSASDAQFLKNEQAVFQFTAEKFKEWGLTPNRKTVRLHMEFVPTACPHRSMVLHTGFNPVTQGRPSQAIMNKLKDYFIKQIKNYMDKGTSSSTVVKDGKTSSASLDTVTPTPNTGWKTNKYGTLYKSESASFTPNTDIITRTTGPFRSMPQSGVLKAGQTIHYDEVMKQDGHVWVGYTGNSGQRIYLPVRTWNKSTNTLGVLWGTIKLEHHHHHH
modifications: Staphylococcus simulans & Phage K
static biofilm reduction (in words) (S. aureus SA113 biofilms): effectively reduced staphylococcal biofilms
turbidity reduction activity compared to parental enzymes [1]: as effective as the parental peptidoglycan hydrolases
